# Values quoted from earlier work as cited in patent publication US20090226898A1, “Mitochondrial markers of ischemia” (Inverness Medical Switzerland GMBH, priority 2005, published 2009).
# How the values were obtained:
# cardiac myocytes = settings: immediately before ischemia
# [1] = system: human monocytes and formyl peptide receptor-like 1 (FPRL1)-transfected human embryonic kidney 293 cells; settings: human monocytes and FPRL1-transfected HEK 293 cells
# [2] = system: human monocytes and formyl peptide receptor-like 1 (FPRL1)-transfected human embryonic kidney 293 cells; settings: human monocytes and FPRL1-transfected HEK 293 cells; remark: listed apart in the source
# [3] = target: T1, FMLP receptor (68-kDa protein) (Homo sapiens, UniProt P21462); settings: binding to the 68-kDa protein
# T1 sequence (P21462 1-350): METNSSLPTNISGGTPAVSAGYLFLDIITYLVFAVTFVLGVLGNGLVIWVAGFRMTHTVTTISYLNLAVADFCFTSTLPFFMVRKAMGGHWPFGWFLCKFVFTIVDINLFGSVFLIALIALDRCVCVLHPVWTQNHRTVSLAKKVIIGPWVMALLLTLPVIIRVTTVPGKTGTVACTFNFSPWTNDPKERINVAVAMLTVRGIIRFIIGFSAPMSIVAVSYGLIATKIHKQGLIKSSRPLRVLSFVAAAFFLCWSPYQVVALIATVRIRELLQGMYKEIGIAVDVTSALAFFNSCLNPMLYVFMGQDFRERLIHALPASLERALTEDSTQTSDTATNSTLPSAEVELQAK
# FPR-like 2 (FPRL2) = target: T2, FPR-like 2 (FPRL2) (Homo sapiens, UniProt P25089)
# T2 sequence (P25089 1-353): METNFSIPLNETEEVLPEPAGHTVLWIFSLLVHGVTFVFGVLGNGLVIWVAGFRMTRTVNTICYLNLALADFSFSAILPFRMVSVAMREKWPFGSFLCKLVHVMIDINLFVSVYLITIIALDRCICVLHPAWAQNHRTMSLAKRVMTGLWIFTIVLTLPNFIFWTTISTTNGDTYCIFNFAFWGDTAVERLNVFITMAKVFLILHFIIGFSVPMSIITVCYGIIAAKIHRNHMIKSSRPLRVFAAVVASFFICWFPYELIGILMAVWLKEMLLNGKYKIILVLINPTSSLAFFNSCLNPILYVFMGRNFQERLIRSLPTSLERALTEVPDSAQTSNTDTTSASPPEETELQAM
compound,measurement,setting,value
C=C(C)[C@H]1Cc2c(ccc3c2O[C@@H]2COc4cc(OC)c(OC)cc4[C@@H]2C3=O)O1 [rotenone],damage to mitochondria,cardiac myocytes,reduces damage to mitochondria
same,production of ROS,cardiac myocytes; cardiac myocytes,decreases the production of ROS
"LL-37: neutrophil granule- and epithelial cell-derived cathelicidin, from hCAP18 (aa1-37) (LLGDFFRKSKEKIGKEFKRIVQRIKDFLRNLVPRTES; Antibacterial peptide LL-37; UniProt P49913 134-170, looked up)",calcium mobilization,[1],can induce calcium mobilization
same,chemotaxis,[2],chemotactic
RKAMGGHWPFGWFLCKF,inhibition of ligand binding,[3],strongest inhibitor of ligand binding
formyl-Met-Leu-Phe [fMLP],receptor activation,FPR-like 2 (FPRL2),only activated by high (micromolar) concentrations
